# Measured values taken from patent US6930203B2, “Gelling agents or thickeners” (Applied NanoSystems B.V., priority 2001, dated 2005).
# Key:
# Format in all cases: physicochemical
# [1] = Solvent scope of N,N′-dialkylaldaramides (1%) or N,N′-dialkylpentaramides (1%): gelation/solubility behaviour in solvents; set-up: key: g = gelation; s = soluble; p = precipitates; c = crystallizes; ns = not soluble; v = viscous; g* = unstable gel, precipitates; cg = crystalline gel; conditions: 1% gelling agent
# Text: It will be understood that the use of the present gelling agents or thickeners to prepare a gel or to thicken a composition is also encompassed by the invention. As is well known, gelling behavior of compounds or compositions is highly unpredictable. […] Preferably, the gelling phenomenon is thermo reversible.
# (§1) Preferred examples include aromatic and nonaromatic hydrocarbons, alcohols, ethers, esters, aldehydes, alkanoic acids, epoxides, amines, halogenated hydrocarbons, silicon oils, vegetable oils, phosphoric esters, sulfoxides, water and mixtures thereof. In order to obtain a gel, the gelling agent or thickener is preferably mixed with the composition to be transformed to a gel in an amount of between 0.01 and 50 wt. %, based on the weight of the composition. In a preferred embodiment, the mixture of the gelling agent or thickener and the composition is heated to allow for an even better gel formation or thickening. Typically, the heating will involve raising the temperature of the mixture to about 30-175° C. until a clear solution is obtained. In an alternative embodiment, the gelling agent is first dissolved in a polar or apolar solvent and then added to or sprayed into a composition or solvent to be converted into a gel.
# Solvent scope of N,N′-dialkylaldaramides (1%) or N,N′-dialkylpentaramides (1%) 1-24 refers to the compounds prepared in Examples 1-23)
# [2] = Gelation of N,N′-dialkyladaramides (1%) in mixtures of solvents; set-up: key: g = gelation; s = soluble; p = precipitates; c = crystallizes; ns = not soluble; v = viscous; g* = unstable gel, precipitates; cg = crystalline gel; conditions: 1% gelling agent
# Text: as §1
# Gelation of N,N′-dialkyladaramides (1%) in Mixtures of Solvents
# [3] = Cold gelation: addition of a solution of the gelling agent (10% in NMP, 0.05 ml) to an organic solution (0.5 ml); set-up: key: g = gelation; s = soluble; p = precipitates; c = crystallizes; ns = not soluble; v = viscous; g* = unstable gel, precipitates; cg = crystalline gel
# Text: as §1
# Addition of a solution of the gelling agent (10% in NMP, 0.05 ml) to an organic solution (0.5 ml, “cold gelation”)
# [4] = Maximum gelator concentration
# Text: Maximum gelator concentration of 5 (C6-Glu-C6) and 15 (C12-Glu-C12)
# [5] = Phase diagram, dropping ball method; conditions: in cyclohexane, silicon oil and p-xylene
# Method: FIG. 1 depicts a phase diagram of 5 (C6-Glu-C6) and 15 (C12-Glu-C12) determined with the dropping ball method.
# Phase Diagram of 5 (C6-Glu-C6) and 15 (C12-Glu-C12)) Dropping Ball Method)
# The phase diagram of 5 (C6-Glu-C6) and 15 (C12-Glu-C12) was determined (see FIG. 1) by using the dropping ball method (A. Takashi, M. Sakai, T. Kato, Polym. J., 12 (1980) 335-341, F. S. Schoonbeek, J. H. van Esch, R. Hulst, R. M. Kellogg, B. L. Feringa, Chem. Eur. J., 6 (2000) 2633-2643).
# [6] = Solubility in several solvents tested (for NMR)
# Method: Synthesis of didodecyl galactaramide. Diethyl galacterate (2.66 g, 10.0 mmol) was added to a solution of dodecylamine (3.75 g, 20.5 mmol) in EtOH (50 ml). After 72 hours stirring, the precipitate was filtered (yield 4.87 g, 8.9 mmol, 89%).
# Synthesis of dicyclododecyl galactaramide. Diethyl galacterate (2.67 15 g, 10.0 mmol) was added to a solution of cyclododecylamine (3.78 g, 20.7 mmol) in EtOH (50 ml). After 48 hours stirring, the precipitate was filtered and washed with H2O and EtOH (yield 2.43 g, 4.5 mmol, 45%).
smiles,measurement,setting,value
"O=C(NC1CCCCCCCCCCC1)[C@@H](O)[C@@H](O)[C@H](O)[C@@H](O)C(=O)NC1CCCCCCCCCCC1 [Example 15, dicyclododecyl D-glucaramide]","Gelation/solubility behaviour in 1,2-dichloroethane",[1],g
same,Gelation/solubility behaviour in 2-methoxyethanol,[1],c
same,Gelation/solubility behaviour in 2-octanol,[1],s
same,Gelation/solubility behaviour in 2-propanol,[1],c
same,Gelation/solubility behaviour in Cyclohexane,[1],g
same,Gelation/solubility behaviour in Dimethylsulfoxide,[1],cg
same,Gelation/solubility behaviour in Ethanol,[1],cg
same,Gelation/solubility behaviour in Hexadecane,[1],ns
same,Gelation/solubility behaviour in Toluene,[1],g
same,Gelation/solubility behaviour in Water,[1],ns
same,Gelation/solubility behaviour in methyl benzoic acid,[1],g
same,Gelation/solubility behaviour in methyl laurate,[1],g
same,Gelation/solubility behaviour in n-butylacetate,[1],g
same,Gelation/solubility behaviour in p-xylene,[1],g
same,Gelation/solubility behaviour in silicon oil,[1],g
same,Gelation in cyclohexane,[2]; Cyclohexane,g
same,Gelation in Dioxane,[2]; Dioxane,cg
same,Gelation in H2O,[2]; H2O,ns
same,Gelation in cyclohexane/dioxane 1:1,[2]; cyclohexane/dioxane 1:1,cg
same,Gelation in dioxane/H2O 1:1,[2]; dioxane/H2O 1:1,g
same,Gelation in dioxane/H2O 1:2,[2]; dioxane/H2O 1:2,ns
same,Gelation in dioxane/H2O 2:1,[2]; dioxane/H2O 2:1,cg
same,Gelation in dioxane/H2O 3:1,[2]; dioxane/H2O 3:1,cg
same,"Cold gelation in 1,2-dichloroethane","[3]; 0.05 ml added to 0.5 ml 1,2-dichloroethane",c
same,Cold gelation in Acetone,[3]; 0.05 ml added to 0.5 ml Acetone,cg
same,Cold gelation in Acetonitril,[3]; 0.05 ml added to 0.5 ml Acetonitril,g
same,Cold gelation in Chloroform,[3]; 0.05 ml added to 0.5 ml Chloroform,s
same,Cold gelation in Heptane,[3]; 0.05 ml added to 0.5 ml Heptane,p
same,Cold gelation in Hexane,[3]; 0.05 ml added to 0.5 ml Hexane,p
same,Cold gelation in Toluene,[3]; 0.05 ml added to 0.5 ml Toluene,g
same,Cold gelation in benzaldehyde,[3]; 0.05 ml added to 0.5 ml benzaldehyde,s
same,Cold gelation in cyclohexane,[3]; 0.05 ml added to 0.5 ml cyclohexane,g
same,Cold gelation in diethyl ether,[3]; 0.05 ml added to 0.5 ml diethyl ether,g
same,Cold gelation in ethylacetate,[3]; 0.05 ml added to 0.5 ml ethylacetate,p
same,Cold gelation in methyl laurate,[3]; 0.05 ml added to 0.5 ml methyl laurate,g
same,Cold gelation in n-butyl acetate,[3]; 0.05 ml added to 0.5 ml n-butyl acetate,g
same,Cold gelation in silicon oil,[3]; 0.05 ml added to 0.5 ml silicon oil,g
same,Cold gelation in tetrahydrofuran,[3]; 0.05 ml added to 0.5 ml tetrahydrofuran,c
same,"Maximum gelator concentration in 1,2-dichloroethane","[4]; 1,2-dichloroethane",<50%
same,Maximum gelator concentration in Toluene,[4]; Toluene,<50%
same,Maximum gelator concentration in cyclohexane,[4]; cyclohexane,<5%
same,Maximum gelator concentration in methyl laurate,[4]; methyl laurate,<5%
same,Maximum gelator concentration in n-butylacetate,[4]; n-butylacetate,<50%
same,Maximum gelator concentration in silicon oil (Dow Corning 702),[4]; silicon oil (Dow Corning 702),<50%
same,Correlation between Tm^−1 and the logarithm of the mole fraction,[5],linear correlation
"O=C(NC1CCCCCCCCCCC1)[C@@H](O)[C@H](O)[C@H](O)[C@@H](O)C(=O)NC1CCCCCCCCCCC1 [Example 17, dicyclododecyl galactaramide]","Gelation/solubility behaviour in 1,2-dichloroethane",[1],ns
same,Gelation/solubility behaviour in 2-methoxyethanol,[1],ns
same,Gelation/solubility behaviour in 2-octanol,[1],ns
same,Gelation/solubility behaviour in 2-propanol,[1],ns
same,Gelation/solubility behaviour in Cyclohexane,[1],ns
same,Gelation/solubility behaviour in Dimethylsulfoxide,[1],ns
same,Gelation/solubility behaviour in Ethanol,[1],ns
same,Gelation/solubility behaviour in Hexadecane,[1],ns
same,Gelation/solubility behaviour in Toluene,[1],ns
same,Gelation/solubility behaviour in Water,[1],ns
same,Gelation/solubility behaviour in methyl benzoic acid,[1],ns
same,Gelation/solubility behaviour in methyl laurate,[1],ns
same,Gelation/solubility behaviour in n-butylacetate,[1],ns
same,Gelation/solubility behaviour in p-xylene,[1],ns
same,Gelation/solubility behaviour in silicon oil,[1],ns
same,Solubility in several solvents tested,[6],low solubility
"CCCCCCCCCCCCNC(=O)[C@@H](O)[C@H](O)[C@H](O)[C@@H](O)C(=O)NCCCCCCCCCCCC [Example 14, didodecyl galactaramide]","Gelation/solubility behaviour in 1,2-dichloroethane",[1],ns
same,Gelation/solubility behaviour in 2-octanol,[1],ns
same,Gelation/solubility behaviour in 2-propanol,[1],ns
same,Gelation/solubility behaviour in Cyclohexane,[1],ns
same,Gelation/solubility behaviour in Dimethylsulfoxide,[1],ns
same,Gelation/solubility behaviour in Ethanol,[1],ns
same,Gelation/solubility behaviour in Hexadecane,[1],ns
same,Gelation/solubility behaviour in Toluene,[1],ns
same,Gelation/solubility behaviour in Water,[1],ns
same,Gelation/solubility behaviour in n-butylacetate,[1],ns
same,Gelation/solubility behaviour in p-xylene,[1],ns
same,Solubility in several solvents tested,[6],low solubility
